According to PubChem BioAssay AID328 (DTP/NCI, 2004):
Toxic doses and inconclusive results are not listed.

System: BDF1 mice, P388 leukemia ip, median survival T/C
Assay: NCI In Vivo Anticancer Drug Screen. Data for tumor model P388 Leukemia (intraperitoneal) in B6D2F1 (BDF1) mice
Conditions: endpoint: median survival time, higher = longer survival
Method in brief: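 Compound-treated tumour-bearing mice were compared with vehicle-treated controls. Survival was recorded, and the value is the treated-group measurement divided by the control-group measurement (T/C).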

[1] = dose: 25.0 mg/kg/injection, schedule: Q04DX003 (ip), vehicle: Klucel (hydroxypropylcellulose) (HPC)
[2] = dose: 50.0 mg/kg/injection, schedule: Q01DX009 (ip), vehicle: Klucel (hydroxypropylcellulose) (HPC)
[3] = dose: 50.0 mg/kg/injection, schedule: Q04DX003 (ip), vehicle: Klucel (hydroxypropylcellulose) (HPC)
[4] = dose: 100.0 mg/kg/injection, schedule: Q01DX009 (ip), vehicle: Klucel (hydroxypropylcellulose) (HPC)
[5] = dose: 100.0 mg/kg/injection, schedule: Q04DX003 (ip), vehicle: Klucel (hydroxypropylcellulose) (HPC)
[6] = dose: 50.0 mg/kg/injection, schedule: Q01DX009 (ip), vehicle: saline with Tween-80
[7] = dose: 100.0 mg/kg/injection, schedule: Q01DX009 (ip), vehicle: saline with Tween-80
[8] = dose: 200.0 mg/kg/injection, schedule: Q01DX009 (ip), vehicle: saline with Tween-80
[9] = dose: 12.5 mg/kg/injection, schedule: Q01DX009 (ip), vehicle: saline with Tween-80
[10] = dose: 25.0 mg/kg/injection, schedule: Q01DX009 (ip), vehicle: saline with Tween-80
[11] = dose: 200.0 mg/kg/injection, schedule: Q04DX003 (ip), vehicle: Klucel (hydroxypropylcellulose) (HPC)
[12] = dose: 100.0 mg/kg/injection, schedule: Q04DX003 (ip), vehicle: saline with Tween-80
[13] = dose: 200.0 mg/kg/injection, schedule: Q04DX003 (ip), vehicle: saline with Tween-80
[14] = dose: 400.0 mg/kg/injection, schedule: Q04DX003 (ip), vehicle: saline with Tween-80

With BrCc1c(CBr)c(CBr)c(CBr)c(CBr)c1CBr the T/C (dose: 25.0 mg/kg/injection, schedule: Q01DX009 (ip), vehicle: Klucel (hydroxypropylcellulose) (HPC)) was 95 % of control, the T/C [1] was 109 % of control and the T/C [2] was 100 % of control. The T/C [3] was 100 % of control, the T/C [4] was 109 % of control and the T/C [5] was 95 % of control.

For Cc1c(NS(=O)(=O)c2ccccc2)c(C)c(NS(=O)(=O)c2ccccc2)c(C)c1NS(=O)(=O)c1ccccc1, the T/C [6] was 88 % of control, the T/C [7] was 91 % of control and the T/C [8] was 88 % of control.

With CCN(CC)CCNc1ccc(C)c2sc3ccc(O)cc3c(=O)c12 the T/C [6] was 183 % of control and the T/C [7] was 94 % of control.

For NC1=Nc2cccc3cccc(c23)N1, the T/C [9] was 92 % of control, the T/C (dose: 12.5 mg/kg/injection, schedule: Q04DX003 (ip), vehicle: Klucel (hydroxypropylcellulose) (HPC)) was 109 % of control and the T/C [10] was 100 % of control. For the same compound, the T/C [1] was 100 % of control, the T/C [6] was 100 % of control and the T/C [3] was 109 % of control.

With CCN(C(=O)C(F)(F)F)C(C)(C)C(SSSC(c1ccc(Cl)cc1)C(C)(C)N(CC)C(=O)C(F)(F)F)c1ccc(Cl)cc1 (configuration not stated) the T/C (dose: 22.0 mg/kg/injection, schedule: Q01DX009 (ip), vehicle: Klucel (hydroxypropylcellulose) (HPC)) was 115 % of control, the T/C (dose: 33.0 mg/kg/injection, schedule: Q01DX009 (ip), vehicle: Klucel (hydroxypropylcellulose) (HPC)) was 115 % of control and the T/C [2] was 120 % of control. For the same compound, the T/C (dose: 75.0 mg/kg/injection, schedule: Q01DX009 (ip), vehicle: Klucel (hydroxypropylcellulose) (HPC)) was 120 % of control, the T/C [4] was 100 % of control and the T/C [5] was 112 % of control. The T/C [11] was 116 % of control.

In the case of O=c1[nH]c(SCc2ccc([N+](=O)[O-])cc2)nc2ccccc12, the T/C [5] is reported as 95 % of control and the T/C [11] is reported as 90 % of control.

For [Cl][Pt+2]([Cl])([Cl])[Cl].[Na+].[S-]c1ncnc2nc[nH]c12.[S-]c1ncnc2nc[nH]c12, the T/C [7] was 120 % of control, the T/C [12] was 100 % of control and the T/C [13] was 100 % of control. The T/C (dose: 300.0 mg/kg/injection, schedule: Q01DX009 (ip), vehicle: saline with Tween-80) was 113 % of control, the T/C (dose: 400.0 mg/kg/injection, schedule: Q01DX009 (ip), vehicle: saline with Tween-80) was 112 % of control and the T/C [14] was 122 % of control.

In the case of CSc1ncnc2c1ncn2CCCl, the T/C [6] is reported as 91 % of control, the T/C [7] is reported as 87 % of control and the T/C [12] is reported as 95 % of control. The T/C [8] was 91 % of control and the T/C [13] was 100 % of control.

In the case of Cc1ccc(C2NC(=S)N3C(c4ccc(C)cc4)NC(=S)N23)cc1 (configuration not stated), the T/C [2] is reported as 98 % of control, the T/C [4] is reported as 111 % of control and the T/C (dose: 200.0 mg/kg/injection, schedule: Q01DX009 (ip), vehicle: Klucel (hydroxypropylcellulose) (HPC)) is reported as 111 % of control. The T/C (dose: 400.0 mg/kg/injection, schedule: Q01DX009 (ip), vehicle: Klucel (hydroxypropylcellulose) (HPC)) was 154 % of control, the T/C (dose: 400.0 mg/kg/injection, schedule: Q01DX009 (ip), vehicle: saline) was 112 % of control and the T/C (dose: 600.0 mg/kg/injection, schedule: Q01DX009 (ip), vehicle: saline) was 120 % of control.

CC(C)CCSc1nc(N)nc2nc[nH]c12 was tested, and the T/C (dose: 100.0 mg/kg/injection, schedule: Q01DX009 (ip), vehicle: other) was 86 % of control, the T/C [12] was 100 % of control and the T/C (dose: 200.0 mg/kg/injection, schedule: Q01DX009 (ip), vehicle: other) was 90 % of control. The T/C [13] was 109 % of control, the T/C (dose: 400.0 mg/kg/injection, schedule: Q01DX009 (ip), vehicle: other) was 109 % of control and the T/C [14] was 109 % of control.

Cc1ccc(C2(C(=O)O)CCCC2)cc1 was tested, and the T/C (dose: 65.0 mg/kg/injection, schedule: Q01DX009 (ip), vehicle: Klucel (hydroxypropylcellulose) (HPC)) was 103 % of control, the T/C (dose: 150.0 mg/kg/injection, schedule: Q01DX009 (ip), vehicle: Klucel (hydroxypropylcellulose) (HPC)) was 94 % of control and the T/C [8] was 91 % of control.

CCOC(=O)C(Cc1ccc(N(CCCl)CCCl)cc1)NC(=O)C(CC(C)C)NC(C)=O (configuration not stated) was tested, and the T/C (dose: 5.0 mg/kg/injection, schedule: Q04DX003 (ip), vehicle: water) was 114 % of control, the T/C (dose: 10.0 mg/kg/injection, schedule: Q04DX003 (ip), vehicle: water) was 114 % of control and the T/C (dose: 40.0 mg/kg/injection, schedule: Q04DX003 (ip), vehicle: water) was 121 % of control.

For NN1N=Nc2cccc3cccc1c23, the T/C (dose: 50.0 mg/kg/injection, schedule: Q01DX009 (ip), vehicle: saline) was 105 % of control, the T/C (dose: 100.0 mg/kg/injection, schedule: Q01DX009 (ip), vehicle: saline) was 110 % of control and the T/C (dose: 110.0 mg/kg/injection, schedule: Q04DX003 (ip), vehicle: saline) was 100 % of control. For the same compound, the T/C (dose: 170.0 mg/kg/injection, schedule: Q04DX003 (ip), vehicle: saline) was 95 % of control, the T/C (dose: 200.0 mg/kg/injection, schedule: Q01DX009 (ip), vehicle: saline) was 110 % of control and the T/C (dose: 255.0 mg/kg/injection, schedule: Q04DX003 (ip), vehicle: saline) was 95 % of control.

With O=C(OCCBr)c1ccccc1[N+](=O)[O-] the T/C (dose: 100.0 mg/kg/injection, schedule: Q04DX003 (ip), vehicle: saline) was 100 % of control, the T/C (dose: 200.0 mg/kg/injection, schedule: Q04DX003 (ip), vehicle: saline) was 104 % of control and the T/C (dose: 400.0 mg/kg/injection, schedule: Q04DX003 (ip), vehicle: saline) was 109 % of control.

For C=C1CC(C2CCC(C)(C)C2)OC1=O (configuration not stated), the T/C (dose: 25.0 mg/kg/injection, schedule: Q04DX002 (ip), vehicle: saline with Tween-80) was 102 % of control and the T/C (dose: 50.0 mg/kg/injection, schedule: Q04DX002 (ip), vehicle: saline with Tween-80) was 100 % of control.

In the case of NC(N)=NC(N)=Nc1ccc2ccc3cccc4ccc1c2c34, the T/C (dose: 25.0 mg/kg/injection, schedule: Q04DX003 (ip), vehicle: saline + alcohol) is reported as 98 % of control and the T/C (dose: 50.0 mg/kg/injection, schedule: Q04DX003 (ip), vehicle: saline + alcohol) is reported as 106 % of control.

For CCCC(NC(N)=O)C(CCC)NC(N)=O (configuration not stated), the T/C [9] was 102 % of control, the T/C [10] was 100 % of control and the T/C [6] was 89 % of control.

Clc1ccc(C#Cc2ccc(Cl)cc2)cc1 was tested, and the T/C (dose: 6.25 mg/kg/injection, schedule: Q04DX003 (ip), vehicle: saline with Tween-80) was 92 % of control, the T/C (dose: 12.5 mg/kg/injection, schedule: Q04DX003 (ip), vehicle: saline with Tween-80) was 92 % of control and the T/C (dose: 25.0 mg/kg/injection, schedule: Q04DX003 (ip), vehicle: saline with Tween-80) was 96 % of control.

With Cc1ccc2c(c1O)NC(=O)C1CCCN1C2=O (configuration not stated) the T/C (dose: 100.0 mg/kg/injection, schedule: Q04DX002 (ip), vehicle: saline with Tween-80) was 99 % of control, the T/C (dose: 200.0 mg/kg/injection, schedule: Q04DX002 (ip), vehicle: saline with Tween-80) was 102 % of control and the T/C (dose: 400.0 mg/kg/injection, schedule: Q04DX002 (ip), vehicle: saline with Tween-80) was 101 % of control.
